Key:
[1] = In vitro plasma protein binding by ultrafiltration; assay type: in vitro ADME; settings: rhesus monkey, read-out: Plasma free fraction (not protein bound)
[2] = Whole-body biodistribution and radiation dosimetry by PET imaging; assay type: in vivo, rhesus monkey
Method: The average PET image over the total acquisition duration (˜240 min) of a female rhesus is shown in FIG. 6 (abbreviations: CT=computerized tomography; gb=gallbladder; HU=Hounsfield units; PET=positron emission tomography; SUV=standardized uptake value; ub=urinary bladder; VOI=volume of interest) at three different levels through the body. […] The volumes of interest (VOIs) drawn over the organs identified as sources for the radiation dosimetry calculation can be seen on both average PET and its associated computed tomography (CT) image. […] Selected organs are labeled in the figure. The non-decay corrected (used for the dosimetry calculation) and decay corrected time activity curves of the 11 source organs are shown in FIG. 8 for both the female and male rhesus monkey. The curve values are expressed as percent of injected activity. The total absorbed doses in various target organs generated by OLINDA|EXM 1.1 software are presented in Table 4 for both adult male and adult female models in units of millisievert per megabecquerel (mSv/MBq) and roentgen equivalent man per millicurie (rem/mCi). Kidneys received the highest radiation dose in both the male and female rhesus. The effective dose equivalent (with ICRP-26 tissue weighting factors) and effective dose (with ICRP-60 tissue weighting factors) calculated for the whole body are also listed in Table 4.

[3] = Phase 0 study: parent fraction in blood/plasma by HPLC; assay type: in vivo; settings: human blood
Method: (§1) An additional cohort of four healthy volunteers (two male, two female) was recruited for a whole body biodistribution cohort in which they underwent a single Compound 8F PET scan.
(§2) Blood samples were analyzed by HPLC to determine the fraction of intact parent compound at each time point. […] Free fraction of parent compound in plasma (not protein bound) was also measured by ultrafiltration and estimated to be 0.36±0.04% (n=10).

[4] = Free fraction of parent compound in plasma by ultrafiltration; assay type: in vitro ADME; settings: human plasma, n=10; read-out: Free fraction of parent compound in plasma (not protein bound)
Method: as §2

[5] = Phase 0 whole-body biodistribution and radiation dosimetry by PET; assay type: in vivo, human
Method: as §1
Elimination via the urinary route was very low.
The following organs were identified as source organs: brain, heart, liver, gallbladder, intestines, kidneys, and urinary bladder. […] The average whole body effective dose (ED) was determined to be 2.19E-02±2.83E-04 mSv/MBq (8.10E-02±1.05E-03 rem/mCi) for adult female and 1.85E-02±7.07E-04 mSv/MBq (6.85E-02±2.62E-03 rem/mCi) for adult male, where the critical organ was determined to be the liver. Stated differently, average whole body ED for females=21.9 μSv/MBq, and for males=18.5 μSv/MBq (average for male and female=20.2 μSv/MBq).

[6] = arterial plasma
[7] = whole-body biodistribution cohort

O=C(OC(C(F)(F)F)C(F)(F)F)N1CCN(Cc2ccc(Cl)cc2N2CCN(CC[18F])CC2)CC1 [Compound 8F, [^18F]1,1,1,3,3,3-hexafluoropropan-2-yl 4-(4-chloro-2-(4-(2-fluoroethyl)piperazin-1-yl)benzyl)piperazine-1-carboxylate]
fraction unbound ([1]; first study): 0.047 ± 0.006
fraction unbound ([1]; second study): 0.008 ± 0.0004
Organ receiving the highest radiation dose ([2]; both male and female rhesus): Kidneys
Organs with the highest uptake ([2]; i.v. bolus, whole-body PET): liver, heart wall, lungs, kidney and brain
Stability in blood ex vivo [3]: stable
fraction unbound [4]: 0.0036 ± 0.0004
Average whole body ED ([5]; average for male and female): 20.2 μSv/MBq
Average whole body ED ([5]; females): 21.9 μSv/MBq
Average whole body ED ([5]; males): 18.5 μSv/MBq
Elimination via the urinary route [5, 7]: very low
Maximum injected dose (ID) in the intestine [5, 7]: 6-7 % ID
Maximum injected dose (ID) in the liver [5, 7]: 26-28 % injected dose (ID)
Organ with highest radiation absorbed dose (critical organ) [5, 7]: liver
Route of elimination of the radiotracer [5, 7]: primarily via hepatobiliary route
Plasma level ([6]; by ~10 min post-dose): ≤ 0.01 % of the injected dose
Peak plasma concentration ([6]; single i.v. 2.25-4.99 mCi): ~0.04 % of the injected dose
Time of peak plasma concentration post-dose ([6]; single i.v. dose): ~5 min

Source: patent US10463753B2, “Radiolabeled monoacylglycerol lipase occupancy probe” (LUNDBECK LA JOLLA RESEARCH CENTER, INC., priority 2016, dated 2019)
